Experimental findings from ChEMBL document CHEMBL5137057, “Small Carbohydrate Derivatives as Potent Antibiofilm Agents” (J Med Chem, 2022) are described below.

One test deals with Serratia marcescens. The test can be described thus: Antibacterial activity against Serratia marcescens ATCC 27117 assessed as inhibition of biofilm formation at 50 ug/ml incubated for 24 hrs by crystal violet staining based analysis relative to control. Format: functional. Set-up: scale not given: the % may be the effect or the level left. Particulars: dose 50 µg/ml.
The subject of test [1] is Pseudomonas aeruginosa. The test can be described thus: Antibacterial activity against Pseudomonas aeruginosa PAO1 NCTC 10332 assessed as inhibition of biofilm formation incubated for 24 hrs by crystal violet staining based analysis. Particulars: PAO1 NCTC 10332, 24 h. Format: functional, organism-based.
Test [2] concerns Pseudomonas aeruginosa. Description: Antibacterial activity against Pseudomonas aeruginosa PAO1 NCTC 10332 assessed as inhibition of biofilm formation at 100 ug/ml incubated for 24 hrs by crystal violet staining based analysis relative to control. Format: functional. Set-up: scale not given: the % may be the effect or the level left. Conditions: dose 100 µg/ml.
Test [3] relates to Pseudomonas aeruginosa. The test can be described thus: Antibacterial activity against Pseudomonas aeruginosa PAO1 NCTC 10332 assessed as inhibition of biofilm dispersion incubated for 24 hrs by crystal violet staining based analysis. Format: functional, organism-based. Conditions: PAO1 NCTC 10332, 24 h.
Test [4] has as its system Cutibacterium acnes. Description: Antibiofilm activity against Propionibacterium acnes LMG 16711 assessed as inhibition of biofilm formation at 0.08 % (w/v) incubated for 24 hrs by fluorescence based analysis. Format: functional. Also on record: scale not given: the % may be the effect or the level left.
Test [5] has as its system Cutibacterium acnes. The test can be described thus: Antibiofilm activity against Propionibacterium acnes LMG 16711 assessed as inhibition of biofilm formation at 0.01 % (w/v) incubated for 24 hrs by fluorescence based analysis. Also on record: scale not given: the % may be the effect or the level left. Format: functional.
For the next test, the system named is Streptococcus suis. Description: Prevention of Streptococcus suis ATCC 700794 adherence to sucrose-dependent membrane surface at 78.1 ug/ml relative to control. Particulars: dose 78.1 µg/ml. Format: functional.
A further test has as its target Lectin A (Photorhabdus laumondii subsp. laumondii, UniProt Q7N561). The test can be described thus: Inhibition of Photorhabdus luminescens LecA expressed in Escherichia coli BL21(DE3) cells by fluorescence based analysis.
Test [6] is described as follows: Downregulation of c-di-GMP level in Pseudomonas aeruginosa PA14 planktonic cells harboring wspF gene mutation at 10 uM incubated for 24 hrs by HPLC method. Format: functional.
Test [7] has as its system Pseudomonas aeruginosa. Description: Downregulation of c-di-GMP level in Pseudomonas aeruginosa PA14 harboring wspF gene mutation biofilm at 10 uM incubated for 24 hrs by HPLC method. Format: functional.
Test [8] can be described thus: Antibiofilm activity against Pseudomonas aeruginosa PA14 cocultured with Staphylococcus aureus ATCC 6538 assessed as inhibition of biofilm formation incubated for 24 hrs by crystal violet staining based microtiter plate method relative to control. Format: functional. Also on record: scale not given: the % may be the effect or the level left.
The subject of the next test is Staphylococcus aureus. The test can be described thus: Prevention of Staphylococcus aureus ATCC 25904 adherence to fibrinogen at 64 ug/ml by crystal violet staining based analysis relative to control. Format: functional. Conditions: dose 64 µg/ml.
Test [9] concerns the target Sortase A (Staphylococcus aureus, UniProt Q9S446). Description: Inhibition of Staphylococcus aureus ATCC 25904 Sortase A protease expressed in Escherichia coli BL21 expression system using Dabcyl-QALPETGEE-Edans as substrate incubated for 30 mins by FRET assay.
Test [10] has as its system Pseudomonas aeruginosa. Description: Potentiation of ciprofloxacin-induced antibacterial activity against Pseudomonas aeruginosa MTCC 2488 biofilm at 410 ug/ml incubated for 24 hrs pretreated with compound followed by ciprofloxacin addition by congo red binding assay. Conditions: dose 410 µg/ml. Format: functional.
The subject of the next test is Porphyromonas gingivalis. The test can be described thus: Antibacterial activity Porphyromonas gingivalis ATCC 33277 assessed as bacterial growth inhibition incubated for 24 hrs by broth dilution assay. Format: functional.
In test [11] the test system is Pseudomonas aeruginosa. Description: Antibacterial activity against Pseudomonas aeruginosa MTCC 2488 biofilm at 410 ug/ml incubated for 24 hrs by congo red binding assay. Format: functional. Conditions: dose 410 µg/ml.
The test system of test [12] is Pseudomonas aeruginosa. The test can be described thus: Potentiation of tetracyclin-induced antibacterial activity against Pseudomonas aeruginosa MTCC 2488 biofilm at 410 ug/ml incubated for 24 hrs pretreated with compound followed by tetracyclin addition by congo red binding assay. Format: functional. Conditions: dose 410 µg/ml.
Test [13] deals with Aggregatibacter actinomycetemcomitans. Description: Antibacterial activity Actinobacillus actinomycetemcomitans ATCC 700685 assessed as bacterial growth inhibition incubated for 24 hrs by broth dilution assay. Format: functional. (In general: In broth dilution the organism is exposed to a series of concentrations in liquid medium.)
For test [14], the target named is Sortase A (Streptococcus mutans, UniProt Q8CM62). The test can be described thus: Inhibition of Streptococcus mutans ATCC 2517 Sortase A protease expressed in Escherichia coli BL21 expression system using Abz-LPATG-Dap(Dnp)-NH2 as substrate incubated for 1 hrs by FRET assay.
A further test relates to Streptococcus mutans. The test can be described thus: Antibiofilm activity against Streptococcus mutans ATCC 2517 assessed as inhibition of biofilm formation at 128 ug/ml measured after 16 hrs by crystal violet staining based assay relative to control. Format: functional. Set-up: scale not given: the % may be the effect or the level left. Conditions: dose 128 µg/ml.
The target of test [15] is T1, PA-I galactophilic lectin (Pseudomonas aeruginosa (strain ATCC 15692 / PAO1 / 1C / PRS 101 / LMG12228), UniProt Q05097).
T1 sequence (Q05097 whole entry): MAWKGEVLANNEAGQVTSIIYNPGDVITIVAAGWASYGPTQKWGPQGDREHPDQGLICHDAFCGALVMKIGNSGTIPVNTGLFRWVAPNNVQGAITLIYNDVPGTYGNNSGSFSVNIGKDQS
Description: Inhibition of FITC-labelled Pseudomonas aeruginosa LecA.

Test [16] is described as follows: Inhibition of AHL-mediated quorum sensing system in Pseudomonas aeruginosa PAO1 assessed as decrease in C4-HSL levels at 64 ug/ml by HPLC/MS analysis relative to control. Particulars: dose 64.0 µg/ml.
The target of test [17] is 3-(3-hydroxydecanoyloxy)decanoate synthase (Pseudomonas aeruginosa (strain ATCC 15692 / PAO1 / 1C / PRS 101 / LMG12228)) (UniProt Q51559). The test can be described thus: Inhibition of Pseudomonas aeruginosa PAO1 Rhamnolipid at 64 to 256 ug/ml by spectrophotometrical analysis relative to control. Particulars: dose 64-256 µg/ml.
Test [18] deals with Protease LasA (Pseudomonas aeruginosa) (UniProt P14789). Description: Inhibition of Pseudomonas aeruginosa PAO1 LasA protease at 64 to 256 ug/ml using azocasein as substrate incubated for 24 hrs by spectrophotometrical analysis relative to control. Conditions: dose 64-256 µg/ml.
The next test concerns Burkholderia cepacia. The test can be described thus: In vivo antibacterial activity against Burkholderia cepacia LMG 16656 infected in BALB/C mouse assessed as reduction in bacterial load in lung at 2 mg/kg, INH administered for 24 to 48 hr post bacterial infection and measured after 3 days post compound treatment in presence of tobramycin relative to control. Also on record: scale not given: the % may be the effect or the level left. Conditions: time 3 day. Format: functional.

For test [19], the target named is Elastase (Pseudomonas aeruginosa (strain ATCC 15692 / PAO1 / 1C / PRS 101 / LMG12228)) (UniProt P14756). The test can be described thus: Inhibition of Pseudomonas aeruginosa PAO1 LasB elastase at 64 to 256 ug/ml incubated for 16 hrs by elastin Congo red (ECR) assay relative to control. Conditions: dose 64-256 µg/ml.
The subject of test [20] is Pseudomonas aeruginosa. Description: Antibiofilm activity against Pseudomonas aeruginosa PAO1 assessed as reduction in bacterial growth by crystal violet staining based assay. Format: functional.
Test [21] relates to Pseudomonas aeruginosa. The test can be described thus: Inhibition of Pseudomonas aeruginosa PAO1 Pyocyanin at 64 to 256 ug/ml by spectrophotometrical analysis relative to control. Particulars: dose 64-256 µg/ml.
A short description of test [22]: Binding affinity to Lactobacillus reuteri Glucosyltransferase assessed as dissociation constant by SPR analysis. Also on record: species or system Limosilactobacillus reuteri. In general terms: SPR reads the build-up and loss of mass on a sensor chip optically.

Converted amounts (≈) assume the structure as drawn.

Sequence of Protease LasA (Pseudomonas aeruginosa) (P14789 whole entry): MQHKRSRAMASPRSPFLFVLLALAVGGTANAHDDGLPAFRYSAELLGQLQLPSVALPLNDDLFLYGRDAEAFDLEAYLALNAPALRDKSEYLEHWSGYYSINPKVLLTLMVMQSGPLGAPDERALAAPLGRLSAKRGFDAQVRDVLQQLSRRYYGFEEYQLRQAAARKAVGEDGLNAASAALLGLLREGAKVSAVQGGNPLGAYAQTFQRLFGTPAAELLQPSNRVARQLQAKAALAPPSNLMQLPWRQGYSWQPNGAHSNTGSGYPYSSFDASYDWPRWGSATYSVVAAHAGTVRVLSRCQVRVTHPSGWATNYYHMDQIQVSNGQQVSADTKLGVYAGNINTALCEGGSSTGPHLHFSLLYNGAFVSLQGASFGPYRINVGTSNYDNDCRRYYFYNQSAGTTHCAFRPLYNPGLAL
Sequence of Elastase (Pseudomonas aeruginosa (strain ATCC 15692 / PAO1 / 1C / PRS 101 / LMG12228)) (P14756 198-498 limits assumed): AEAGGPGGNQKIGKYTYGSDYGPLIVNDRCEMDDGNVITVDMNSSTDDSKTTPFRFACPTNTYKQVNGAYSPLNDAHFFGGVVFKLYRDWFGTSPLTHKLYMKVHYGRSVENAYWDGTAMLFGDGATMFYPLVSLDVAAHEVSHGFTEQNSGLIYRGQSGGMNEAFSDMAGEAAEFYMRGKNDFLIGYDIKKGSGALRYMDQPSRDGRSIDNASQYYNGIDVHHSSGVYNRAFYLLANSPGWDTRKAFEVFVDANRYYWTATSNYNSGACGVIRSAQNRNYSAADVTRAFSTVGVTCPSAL
Sequence of Sortase A (Staphylococcus aureus, UniProt Q9S446) (Q9S446 whole entry): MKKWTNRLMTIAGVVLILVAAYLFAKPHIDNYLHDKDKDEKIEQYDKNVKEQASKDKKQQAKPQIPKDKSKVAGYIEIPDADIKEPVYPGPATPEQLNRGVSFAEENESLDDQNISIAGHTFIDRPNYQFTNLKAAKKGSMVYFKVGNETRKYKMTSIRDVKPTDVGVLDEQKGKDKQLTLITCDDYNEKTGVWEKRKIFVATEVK
Sequence of Sortase A (Streptococcus mutans, UniProt Q8CM62) (Q8CM62 whole entry): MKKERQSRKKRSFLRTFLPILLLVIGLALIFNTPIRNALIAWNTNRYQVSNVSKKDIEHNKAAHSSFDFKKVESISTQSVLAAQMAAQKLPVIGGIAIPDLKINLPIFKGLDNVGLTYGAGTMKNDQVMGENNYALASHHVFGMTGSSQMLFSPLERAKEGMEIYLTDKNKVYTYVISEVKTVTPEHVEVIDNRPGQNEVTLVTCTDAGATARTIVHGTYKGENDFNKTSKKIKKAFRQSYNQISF
Sequence of Lectin A (Q7N561 whole entry): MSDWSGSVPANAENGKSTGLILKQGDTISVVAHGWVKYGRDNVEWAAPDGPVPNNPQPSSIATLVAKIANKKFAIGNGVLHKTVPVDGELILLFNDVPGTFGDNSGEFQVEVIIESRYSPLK

What is called IC50 is the concentration that inhibits the measured activity by half. For `CCCCCCC[C@H](CC(=O)N1CCOCC1)OC(=O)C[C@@H](CCCCCCC)O[C@@H]1O[C@@H](C)[C@H](O)[C@@H](O)[C@H]1O[C@@H]1O[C@@H](C)[C@H](O)[C@@H](O)[C@H]1O`, the values for the Activity with Serratia marcescens and with Pseudomonas aeruginosa [2] were >80% and 90%, respectively. Besides, the results for the concentration for half-maximal inhibition (IC50) in the test on Pseudomonas aeruginosa [1] and in the test on Pseudomonas aeruginosa [3] were 12.5 µg/mL (≈ 17.4 µM) and 10 µg/mL (≈ 13.9 µM), respectively.

On to `CC(C)=CCc1c(O[C@@H]2O[C@H](CO)[C@@H](O)[C@H](O)[C@H]2O)cc(O)c2c(=O)c(O[C@@H]3O[C@H](CO)[C@@H](O)[C@H](O)[C@H]3O)c(-c3ccc(O)c(O)c3)oc12`, for which the values for the Activity in the test with Cutibacterium acnes [4] and in the test on Cutibacterium acnes [5] were 75% and 40%, respectively.

In turn, `C[C@@H]1O[C@@H](OC[C@H]2O[C@@H](Oc3c(-c4ccc(O)c(O)c4)oc4cc(O)cc(O)c4c3=O)[C@H](O)[C@@H](O)[C@@H]2O)[C@H](O)[C@H](O)[C@H]1O` [RUTIN] yielded an Activity in the test with Streptococcus suis of 20%.

On to `OC[C@H]1O[C@H](OC[C@H]2O[C@H](O[C@]3(CO)O[C@H](CO)[C@@H](O)[C@@H]3O)[C@H](O)[C@@H](O)[C@@H]2O)[C@H](O)[C@@H](O)[C@H]1O` [RAFFINOSE], for which the IC50 against Lectin A is 110 µM. Besides, the Activity came to 47% in [6], 59% in the test with Pseudomonas aeruginosa [7] and 23% in test [8].

The molecule `C[C@H]1O[C@@H](Oc2c(-c3ccc(O)c(O)c3)oc3cc(O)cc(O)c3c2=O)[C@H](O)[C@H](O)[C@H]1O` registered an Activity with Staphylococcus aureus of 51.9%. The molecule further showed a half-maximal inhibitory concentration (IC50) against Sortase A [9] of 71.4 µM.

`C[C@@H]1O[C@@H](O[C@H]2[C@H](Oc3cc(O)c4c(c3)O[C@H](c3ccc(O)cc3)CC4=O)O[C@H](CO)[C@@H](O)[C@@H]2O)[C@H](O)[C@H](O)[C@H]1O` [NARINGIN]: the Activity with Pseudomonas aeruginosa [10] was determined as 89.35%; in the test on Pseudomonas aeruginosa [11], 49.5%; in the test on Pseudomonas aeruginosa [12], 73.76%. Besides, the MIC50 (in the test with Porphyromonas gingivalis; in [13]) was 9800 µg/mL (≈ 16900 µM) in each case.

Take `C[C@H]1O[C@@H](O[C@H]2C(=O)c3c(O)cc(O)cc3O[C@@H]2c2ccc(O)c(O)c2)[C@H](O)[C@H](O)[C@H]1O`: the half-inhibitory concentration (IC50) on Sortase A [14] was 16.7 µM. For the same molecule, in the test on Streptococcus mutans, the Activity amounted to 70%.

In turn, `OC[C@H]1O[C@@H](OCCCc2cn(CCn3cc([C@@H]4O[C@H](CO)[C@@H](n5cc([C@@H]6O[C@H](CO)[C@@H](n7cc(CCCO[C@@H]8O[C@H](CO)[C@H](O)[C@H](O)[C@H]8O)nn7)[C@H](O)[C@H]6O)nn5)[C@H](O)[C@H]4O)nn3)nn2)[C@H](O)[C@@H](O)[C@H]1O` showed a concentration for half-maximal inhibition (IC50) in test [15] of 0.22 µM.

The inhibition is the change of the read-out against control, counted positive when it falls. For the molecule `O=C(O)[C@H]1O[C@@H](Oc2cc3oc(-c4ccccc4)cc(=O)c3c(O)c2O)[C@H](O)[C@@H](O)[C@@H]1O` [BAICALIN], the inhibition in [16] came to 77.2%; in test [17], 45.1%; in test [18], 48.6%; in [19] it was 77.1%; in the test on Pseudomonas aeruginosa [21] it was 61.7%. In the test on Burkholderia cepacia, the Activity amounted to 99%. Further, in the test with Pseudomonas aeruginosa [20], the MIC was > 1020 µg/mL.

A word on the Kd: it is a measure of binding affinity in units of concentration. For the molecule `C[C@H]1[C@H](Oc2ccc(/C=N/NC(=O)C3CCN(C(=O)OC(C)(C)C)CC3)cc2)O[C@H](CO)[C@@H](O)[C@@H]1O`, in test [22], the Kd came to 1600 µM.
